These results are taken from US20250171407A1, “ULTRAVIOLET ABSORBER” (BASF SE, priority 2022, published 2025).

This data set can be described thus: Solubility test: visual assessment of defects in the dried paint of the stabilized coating formulation. The class given is physicochemical. The text has this:
Each coating formulation A was stabilized with 1.0 or 3.0 active % based on resin solids of Tinuvin® 1130 (UV absorber, BASF SE), Tinuvin® 9945-DW (N) or inventive examples samples.
Each coating formulation further contained 1,0 active % based on resin solids of Tinuvin® 123DW (N) (HALS, BASF SE).
The clear coat formulations were subsequently applied by brush onto a wood substrate (thickness: two layers à 100 g/m^2 resulting after drying at room temperature in a final dry film thickness of ˜40 μm). The clear coat formulations were subsequently applied by draw-down onto a glass plate (thickness: one layer b 200 g/m^2 resulting after drying at room temperature in a final dry film thickness of ˜40 μm).
The solubility of above-described coating formulation containing one of the compounds obtained in examples 3, 11 and 27 in the amount given above was tested. The solubility was visually assessed qualitatively by presence of defects in the dried paint.

Consider Tinuvin® 1130 [Example 27], for which the Presence of defects result is given as “no”.
